Measurements as given in PubChem BioAssay (NCI).
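Here, GI50 denotes the concentration required for 50% inhibition of growth. TGI: total growth inhibition.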

Key:
Assay in all cases: NCI tumour cell line growth inhibition, 384-well format
[1] = tested on: MDA-MB-231 breast
[2] = tested on: SF-295 CNS
[3] = tested on: CAKI-1 renal
[4] = tested on: OVCAR-3 ovarian
[5] = tested on: MOLT-4 leukemia
[6] = tested on: SF-268 CNS
[7] = tested on: NCI-H522 lung
[8] = tested on: NCI-H322M lung
[9] = tested on: UO-31 renal
[10] = tested on: SF-539 CNS
[11] = tested on: BT-549 breast
[12] = tested on: OVCAR-8 ovarian
[13] = tested on: HCT-15 colon
[14] = tested on: M14 melanoma
[15] = tested on: HOP-92 NSCLC
[16] = tested on: SK-MEL-2 melanoma
[17] = tested on: SK-OV-3 ovarian
[18] = tested on: OVCAR-5 ovarian
[19] = tested on: MCF7 breast
[20] = tested on: NCI-H460 NSCLC
[21] = tested on: EKVX NSCLC
[22] = tested on: SNB-19 CNS
[23] = tested on: HOP-62 NSCLC
[24] = tested on: MDA-MB-435 melanoma
[25] = tested on: NCI-H23 lung
[26] = tested on: SN12C renal
[27] = tested on: DU-145 prostate
[28] = tested on: IGROV1 ovarian
[29] = tested on: A549 NSCLC
[30] = tested on: KM12 colon
[31] = tested on: UACC-62 melanoma
[32] = tested on: MDA-MB-468 breast
[33] = tested on: 786-0 renal
[34] = tested on: UACC-257 melanoma
[35] = tested on: TK-10 renal
[36] = tested on: COLO 205 colon
[37] = tested on: ACHN renal
[38] = tested on: SK-MEL-5 melanoma
[39] = tested on: SR leukemia
[40] = tested on: SK-MEL-28 melanoma
[41] = tested on: SNB-75 CNS
[42] = tested on: MALME-3M melanoma
[43] = tested on: U251 glioblastoma
[44] = tested on: PC-3 prostate
[45] = tested on: HCT-116 colon
[46] = tested on: K-562 leukemia
[47] = tested on: HS 578T breast
[48] = tested on: OVCAR-4 ovarian
[49] = tested on: HL-60(TB) leukemia
[50] = tested on: HT29 colon
[51] = tested on: SW-620 colon
[52] = tested on: NCI-H226 lung
[53] = tested on: A498 renal
[54] = tested on: RXF 393 renal
[55] = tested on: T-47D breast

## CCc1cc2c(c(OCC(F)(F)F)c(C(=O)NC3CCN(C(=O)CO)CC3)n2C)c(=O)n1CC(=O)c1ccccc1
[1]
  GI50: 37.7 µM
  TGI: > 100 µM
[2]
  GI50: 24.9 µM
  TGI: 98.7 µM
[3]
  GI50: 39.6 µM
  TGI: > 100 µM
[4]
  GI50: 40 µM
  TGI: > 100 µM
[5]
  GI50: 18.3 µM
  TGI: 34.6 µM
[6]
  GI50: 68.8 µM
  TGI: > 100 µM
[7]
  GI50: 69.8 µM
  TGI: > 100 µM
[8]
  GI50: 72.6 µM
  TGI: > 100 µM
[9]
  GI50: 19.7 µM
  TGI: 51.6 µM
[10]
  GI50: 37.8 µM
  TGI: > 100 µM
[11]
  GI50: 57.9 µM
  TGI: > 100 µM
[12]
  GI50: 54.2 µM
  TGI: > 100 µM
[13]
  GI50: 61.9 µM
  TGI: > 100 µM
[14]
  GI50: > 100 µM
  TGI: > 100 µM
[15]
  GI50: 58.6 µM
  TGI: > 100 µM
[16]
  GI50: 30.1 µM
  TGI: > 100 µM
[17]
  GI50: 45.8 µM
  TGI: > 100 µM
[18]
  GI50: > 100 µM
  TGI: > 100 µM
[19]
  GI50: 9.23 µM
  TGI: > 100 µM
[20]
  GI50: 27.5 µM
  TGI: > 100 µM
[21]
  GI50: 40.3 µM
  TGI: > 100 µM
[22]
  GI50: > 100 µM
  TGI: > 100 µM
[23]
  GI50: 28.2 µM
  TGI: > 100 µM
[24]
  GI50: > 100 µM
  TGI: > 100 µM
[25]
  GI50: 79.9 µM
  TGI: > 100 µM
[26]
  GI50: > 100 µM
  TGI: > 100 µM
[27]
  GI50: 82.5 µM
  TGI: > 100 µM
[28]
  GI50: 58.2 µM
  TGI: > 100 µM
[29]
  GI50: 46.8 µM
  TGI: > 100 µM
[30]
  GI50: 42.4 µM
  TGI: > 100 µM
[31]
  GI50: 32.6 µM
  TGI: > 100 µM
[32]
  GI50: 20.6 µM
  TGI: 79.2 µM
[33]
  GI50: 18.4 µM
  TGI: 36.6 µM
[34]
  GI50: 68.8 µM
  TGI: > 100 µM
[35]
  GI50: 33.9 µM
  TGI: > 100 µM
[36]
  GI50: > 100 µM
  TGI: > 100 µM
[37]
  GI50: 31.6 µM
  TGI: > 100 µM
[38]
  GI50: 23.2 µM
  TGI: > 100 µM
[39]
  GI50: 17.3 µM
  TGI: 31.4 µM
[40]
  GI50: 38.9 µM
  TGI: > 100 µM
[41]
  GI50: 54.9 µM
  TGI: > 100 µM
[42]
  GI50: 73.9 µM
  TGI: > 100 µM
[43]
  GI50: 52.6 µM
  TGI: > 100 µM
[44]
  GI50: 42.1 µM
  TGI: > 100 µM
[45]
  GI50: 35.6 µM
  TGI: > 100 µM
[46]
  GI50: 33.6 µM
  TGI: > 100 µM
[47]
  GI50: 37.7 µM
  TGI: > 100 µM
[48]
  GI50: 37.1 µM
  TGI: > 100 µM
[49]
  GI50: 25.3 µM
  TGI: 40.7 µM
[50]
  GI50: 41.7 µM
  TGI: > 100 µM
[51]
  GI50: 57 µM
  TGI: > 100 µM
[52]
  GI50: 22.4 µM
  TGI: > 100 µM
[53]
  GI50: 33.6 µM
  TGI: > 100 µM
[54]
  GI50: 1.91 µM
  TGI: 12.4 µM
[55]
  GI50: 29.9 µM
  TGI: > 100 µM
